From PubChem BioAssay AID330 (DTP/NCI, 2004)
Several values for one entry are separate records, joined by “and”; a condition that tells them apart may be missing. Identical values can stand only once. Toxic doses and inconclusive results are not listed.

System: P388 leukemia ip, CD2F1 mice, survival T/C
Experiment: NCI In Vivo Anticancer Drug Screen. Data for tumor model P388 Leukemia (intraperitoneal) in CD2F1 (CDF1) mice
Conditions: endpoint: median survival time, higher = longer survival
Procedure, shortened: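 Mice carrying the transplanted tumor received test compound or vehicle. Survival was recorded in each group, and the value is the treated-group measurement divided by that of the vehicle-treated control group.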

[1] = dose: 100.0 mg/kg/injection, schedule: Q01DX009 (ip), vehicle: saline with Tween-80
[2] = dose: 200.0 mg/kg/injection, schedule: Q01DX009 (ip), vehicle: saline with Tween-80
[3] = dose: 400.0 mg/kg/injection, schedule: Q01DX009 (ip), vehicle: saline with Tween-80
[4] = dose: 50.0 mg/kg/injection, schedule: Q01DX009 (ip), vehicle: saline
[5] = dose: 100.0 mg/kg/injection, schedule: Q01DX009 (ip), vehicle: saline
[6] = dose: 200.0 mg/kg/injection, schedule: Q01DX009 (ip), vehicle: saline
[7] = dose: 100.0 mg/kg/injection, schedule: Q04DX003 (ip), vehicle: saline with Tween-80
[8] = dose: 200.0 mg/kg/injection, schedule: Q04DX003 (ip), vehicle: saline with Tween-80
[9] = dose: 400.0 mg/kg/injection, schedule: Q04DX003 (ip), vehicle: saline with Tween-80
[10] = dose: 60.0 mg/kg/injection, schedule: Q01DX005 (ip), vehicle: saline with Tween-80
[11] = dose: 120.0 mg/kg/injection, schedule: Q01DX005 (ip), vehicle: saline with Tween-80

Compound: COc1ccc(N=Cc2c(O)ccc3c2oc2cc(Cl)c(O)c(Cl)c23)cc1
- T/C (dose: 60.0 mg/kg/injection, schedule: Q01DX005 (ip), vehicle: Klucel (hydroxypropylcellulose) (HPC)): 96 % of control
- T/C (dose: 120.0 mg/kg/injection, schedule: Q01DX005 (ip), vehicle: Klucel (hydroxypropylcellulose) (HPC)): 93 % of control
- T/C (dose: 240.0 mg/kg/injection, schedule: Q01DX005 (ip), vehicle: Klucel (hydroxypropylcellulose) (HPC)): 91 % of control

Compound: C/C(=N\O)C1(C)CC=CCC1CO (stereo unspecified)
- T/C [1]: 95 % of control
- T/C [2]: 100 % of control
- T/C [3]: 100 % of control

Compound: CCOP(=O)(CC1OCCCO1)OCC
- T/C [4]: 98 % of control
- T/C [5]: 100 % of control
- T/C [6]: 102 % of control

Compound: CN(Cc1cnc2nc(N)nc(N)c2n1)c1c(Cl)cc(C(=O)NC(CCC(=O)O)C(=O)O)cc1Br (stereo unspecified)
- T/C (dose: 0.3 mg/kg/injection, schedule: Q01DX003 (ip), vehicle: saline): 183 % of control
- T/C (dose: 0.4 mg/kg/injection, schedule: Q01DX003 (ip), vehicle: saline): 177 % of control
- T/C [7]: 170 % of control
- T/C [8]: 170 % of control
- T/C [9]: 162 % of control and 195 % of control
- T/C (dose: 600.0 mg/kg/injection, schedule: Q04DX003 (ip), vehicle: saline with Tween-80): 154 % of control

Compound: Nc1cc(C(F)(F)F)ccc1-c1ccn[nH]1
- T/C [4]: 94 % of control
- T/C [5]: 97 % of control
- T/C [6]: 96 % of control

Compound: N#Cc1ccc(OC(=O)Nc2c(Br)cc(Br)cc2Br)cc1
- T/C [10]: 93 % of control
- T/C [11]: 99 % of control
- T/C (dose: 240.0 mg/kg/injection, schedule: Q01DX005 (ip), vehicle: saline with Tween-80): 99 % of control

Compound: COc1nc2c(=O)[nH]cnc2n1C1OC(CO)C(O)C1O (stereo unspecified)
- T/C (dose: 60.0 mg/kg/injection, schedule: Q01DX005 (ip), vehicle: saline): 104 % of control
- T/C (dose: 120.0 mg/kg/injection, schedule: Q01DX005 (ip), vehicle: saline): 97 % of control
- T/C (dose: 240.0 mg/kg/injection, schedule: Q01DX005 (ip), vehicle: saline): 98 % of control

Compound: CCOC1=NN(c2ccccc2)C(=O)C1
- T/C [1]: 100 % of control
- T/C [7]: 95 % of control
- T/C [2]: 100 % of control
- T/C [8]: 95 % of control
- T/C [3]: 100 % of control
- T/C [9]: 95 % of control

Compound: COc1cc2c(ccc3cc4cccc[n+]4cc32)c(Br)c1OC
- T/C (dose: 12.5 mg/kg/injection, schedule: Q01DX009 (ip), vehicle: saline sonified): 104 % of control
- T/C (dose: 25.0 mg/kg/injection, schedule: Q01DX009 (ip), vehicle: saline sonified): 118 % of control
- T/C (dose: 50.0 mg/kg/injection, schedule: Q01DX009 (ip), vehicle: saline sonified): 113 % of control

Compound: O=C1CSC(=O)N1c1ccc(Cl)c(Cl)c1
- T/C (dose: 12.5 mg/kg/injection, schedule: Q01DX009 (ip), vehicle: saline): 94 % of control
- T/C (dose: 25.0 mg/kg/injection, schedule: Q01DX009 (ip), vehicle: saline): 89 % of control
- T/C (dose: 50.0 mg/kg/injection, schedule: Q01DX009 (ip), vehicle: saline with Tween-80): 95 % of control
- T/C [4]: 88 % of control
- T/C [1]: 87 % of control

Compound: CC(C)(C)SC(=S)SCC(=O)c1cc2ccccc2o1
- T/C (dose: 50.0 mg/kg/injection, schedule: Q01DX005 (ip), vehicle: saline with Tween-80): 100 % of control
- T/C (dose: 100.0 mg/kg/injection, schedule: Q01DX005 (ip), vehicle: saline with Tween-80): 93 % of control
- T/C (dose: 200.0 mg/kg/injection, schedule: Q01DX005 (ip), vehicle: saline with Tween-80): 93 % of control

Compound: CN(C)c1ccc(C(=O)C2(O)CCCC(C)(C)C2)cc1 (stereo unspecified)
- T/C (dose: 100.0 mg/kg/injection, schedule: Q01DX001 (ip), vehicle: Klucel (hydroxypropylcellulose) (HPC)): 103 % of control
- T/C (dose: 200.0 mg/kg/injection, schedule: Q01DX001 (ip), vehicle: Klucel (hydroxypropylcellulose) (HPC)): 101 % of control
- T/C (dose: 400.0 mg/kg/injection, schedule: Q01DX001 (ip), vehicle: Klucel (hydroxypropylcellulose) (HPC)): 101 % of control

Compound: CC(C)NC(=O)OCCS(=O)c1c(Cl)c(Cl)nn1C (stereo unspecified)
- T/C [10]: 117 % of control
- T/C [11]: 109 % of control
